Counter-ions that a name gives are not always drawn. Like-named read-outs stand apart in the source and are kept apart here. Each block holds one molecule with its values, some of them ahead of it.
What was measured:
[1] = test system: H82 small cell lung carcinoma; assay: Cell proliferation assay, H82 (CellTiter fluorescence); assay type: cell-based; conditions: for IC50 / inhibition at 100 µM / inhibition at 300 µM: Homo sapiens; for inhibition at 100 µM / inhibition at 300 µM: read-out: % Inhibition of Cell Growth at day 3 compared to vehicle-treated cells
Procedure: (§1) In vitro experiments were conducted on four cancer cell lines: the A549 adenocarcinoma cell line, the H520 squamous cell carcinoma the H82 small cell lung carcinoma and Calu 3 lung adenocarcinoma. The A549 tumor cells, were plated at a density of 1.5×10^4 cells per mL and let to adhere on 96-well microplates in F12K cell culture medium enriched with 10% fetal calf serum (FCS). The H520, H82 and Calu 3 tumor cells were plated at a density of 5×10^4 cells per mL in RPMI+10% FCS. After 24 h in culture, the medium was changed and cells were exposed to ASM-024 at concentrations ranging from 10^−7M to 10^−3M (FIGS. 1A-1C). After 3 and 6 days in culture, cell growth was quantified using the MTT colorimetric assay (M2128, Sigma) at 575-690 nm or the Cell Titer fluorescence assay (G8080, Promega) at 560/590 nm.
(§2) In an another set of experiments, a series of 16 other homopiperazinium compounds, in addition to ASM-024, were tested for their anti-proliferative effect on the four tumor cell lines described above after up to 6 days in culture at concentrations of 10^-7M to 10^-3M. (FIGS. 4A-4E) Cell growth was quantified using the MTT colorimetric assay for the A-549, H520 and Calu 3 cell lines and the CellTiter Fluorescence assay.for the H82 tumor cell line These are established method of determining viable cell number in proliferation studies.

[2] = test system: A549 adenocarcinoma cell line; assay: Cell proliferation assay, A549 (MTT)
Procedure: as §1, §2

[3] = test system: H520 squamous cell carcinoma; assay: Cell proliferation assay, H520 (MTT); assay type: cell-based
Procedure: as §1, §2

[4] = test system: Calu 3 lung adenocarcinoma; assay: Cell proliferation assay, Calu 3 (MTT); assay type: cell-based; conditions: Homo sapiens
Procedure: as §1, §2

[5] = read-out: IC50 Day 3, A549, day 3 in culture
[6] = read-out: IC50 Day 6, A549, day 6 in culture
[7] = H520, day 3 in culture, read-out: IC50 Day 3
[8] = H520, day 6 in culture, read-out: IC50 Day 6
[9] = NCI-H82, 72 h, read-out: IC50 Day 3
[10] = NCI-H82, 144 h, read-out: IC50 Day 6
[11] = Homo sapiens, A549, 72 h, read-out: IC50 Day 3, A549, day 3 in culture
[12] = Homo sapiens, A549, 144 h, read-out: IC50 Day 6, A549, day 6 in culture
[13] = Homo sapiens, NCI-H520, 72 h, read-out: IC50 Day 3, H520, day 3 in culture
[14] = Homo sapiens, NCI-H520, 144 h, read-out: IC50 Day 6, H520, day 6 in culture
[15] = NCI-H82, 72 h, H82, day 3, 3 × 10^−4M
[16] = NCI-H82, 72 h, H82, day 3, 10^−4M
[17] = Homo sapiens, NCI-H520, 72 h, H520, day 3 in culture, read-out: IC50 Day 3
[18] = Homo sapiens, NCI-H520, 144 h, H520, day 6 in culture, read-out: IC50 Day 6
[19] = NCI-H82, 72 h, H82, day 3 in culture, read-out: IC50 Day 3
[20] = NCI-H82, 144 h, H82, day 6 in culture, read-out: IC50 Day 6
[21] = 72 h, Calu 3, day 3 in culture, read-out: IC50 Day 3
[22] = 144 h, Calu 3, day 6 in culture, read-out: IC50 Day 6

Structure (SMILES): Cc1cccc(N2CCC[N+](C)(C)CC2)c1 (as salt: tosylate) [ASM-068, 4-Dimethyl-1-(3-methylphenyl)-homopiperazinium Tosylate]
melting point: 161.6 to 162.5 °C

IC50 [2, 5]: 51 ± 6 µM | IC50 [2, 6]: 48 ± 25 µM | IC50 [3, 7]: 892 ± 98 µM | IC50 [3, 8]: 396 ± 147 µM
Structure (SMILES): CC[N+]1(CC)CCCN(c2ccccc2)CC1.[I-] [ASM-009, 1,1-Diethyl-4-phenyl-homopiperazinium Iodide]
% Inhibition of Cell Growth at day 3 compared to vehicle-treated cells ([1]; H82, day 3, 3 × 10^−4M): 35% | % Inhibition of Cell Growth at day 3 compared to vehicle-treated cells ([1]; H82, day 3, 10^−4M): −12%

Structure (SMILES): C[N+]1(C)[C@@H]2C[C@@H](OC(=O)C(O)(c3cccs3)c3cccs3)C[C@H]1[C@@H]1O[C@@H]12 [Tiotropium, reference compound]
cell proliferation / cell growth inhibition (in words) ([1]; H82, day 3 and day 6, text on figures): no significant cell growth inhibition | IC50 (in words) ([1]; H82, cell line not given): No IC50 could be calculated | cell proliferation / cell growth inhibition (in words) ([2]; A549, day 3 and day 6, text on figures): no significant cell growth inhibition | IC50 (in words) ([2]; A549, cell line not given): No IC50 could be calculated | cell proliferation / cell growth inhibition (in words) ([3]; H520, day 3 and day 6, text on figures): no significant cell growth inhibition | IC50 (in words) ([3]; H520, cell line not given): No IC50 could be calculated

Structure (SMILES): C[N+]1(C)CCCN(c2ccc(C(F)(F)F)cc2)CC1 [ASM-058, 1,1-Dimethyl-4-(4-trifluoromethylphenyl)-homopiperazinium Tosylate]
IC50 [1, 9]: 472 µM | IC50 [1, 10]: 299 µM | IC50 [2, 11]: 22 ± 10 µM | IC50 [2, 12]: 27 ± 26 µM | IC50 [3, 13]: 356 ± 143 µM | IC50 [3, 14]: 210 ± 82 µM

melting point: 167.5 to 168.7 °C
Structure (SMILES): CC[N+]1(C)CCCN(c2ccccc2)CC1.[I-] (centres unmarked) (hydrate or solvate) [ASM-055, 1-Ethyl-1-Methyl-4-(phenyl)-homopiperazinium Tosylate]

Structure (SMILES): CC[N+]1(C)CCCN(c2ccccn2)CC1 (centres unmarked) [ASM-017, 1-Ethyl-1-methyl-4-(2-pyridyl)-homopiperazinium Iodide]
inhibition at 100 µM ([1]; NCI-H82, 72 h): -26% | inhibition at 300 µM ([1]; NCI-H82, 72 h): -6% | IC50 [2, 11]: 89 ± 13 µM | IC50 [2, 12]: 65 ± 25 µM | IC50 [3, 13]: 953 ± 39 µM | IC50 [3, 14]: 469 ± 163 µM

Structure (SMILES): CC(C)[N+]1(C)[C@@H]2CC[C@H]1C[C@@H](OC(=O)C(CO)c1ccccc1)C2 (some centres unmarked) [ipratropium, reference compound]
cytotoxic effect ([2]; A549, at 1000 μM): cytotoxic effect

IC50 [2, 11]: 136 ± 39 µM | IC50 [2, 12]: 82 ± 32 µM | IC50 [3, 17]: > 1000 µM | IC50 [3, 18]: 536 ± 101 µM
Structure (SMILES): CCC[N+]1(C)CCCN(c2ccccn2)CC1 (centres unmarked) [ASM-018, 1-Methyl-1-propyl-4-(2-pyridyl)-homopiperazinium Iodide]
inhibition at 300 µM [1, 15]: 35% | inhibition at 100 µM [1, 16]: 15%

IC50 [2, 5]: 46 ± 7 µM | IC50 [2, 6]: 45 ± 32 µM | IC50 [3, 7]: > 700 µM | IC50 [3, 8]: 387 ± 178 µM
Structure (SMILES): CC[N+]1(CC)CCCN(c2ccccc2)CC1.[Cl-] [ASM-022, 1,1-Diethyl-4-phenyl-homopiperazinium Chloride]
% Inhibition of Cell Growth at day 3 compared to vehicle-treated cells ([1]; H82, day 3, 3 × 10^−4M): 55% | % Inhibition of Cell Growth at day 3 compared to vehicle-treated cells ([1]; H82, day 3, 10^−4M): 23%

Structure (SMILES): C[N+]1(C)CCCN(c2ccc(C(F)(F)F)cc2)CC1 (as salt: tosylate) [ASM-058, 1,1-Dimethyl-4-(4-trifluoromethylphenyl)-homopiperazinium Tosylate]
melting point: 212.6 to 213.4 °C

Structure (SMILES): CC[N+]1(CC)CCCN(c2ccc(O)cc2)CC1 [ASM-073, 1,1-Diethyl-4-(phenyl-4-hydroxy)-homopiperazinium tosylate]
inhibition at 100 µM ([1]; NCI-H82, 72 h): 100% | inhibition at 300 µM ([1]; NCI-H82, 72 h): 100% | IC50 [2, 11]: 119 ± 49 µM | IC50 [2, 12]: 161 ± 82 µM | IC50 [3, 13]: 187 ± 28 µM | IC50 [3, 14]: 148 ± 14 µM

IC50 [2, 11]: 146 ± 92 µM | IC50 [2, 12]: 112 ± 96 µM | IC50 [3, 17]: > 1000 µM | IC50 [3, 18]: 634 ± 124 µM
Structure (SMILES): CC[N+]1(CC)CCCN(c2ccccn2)CC1 [ASM-037, 1,1-Diethyl-4-(2-pyridyl)-homopiperazinium Tosylate]
inhibition at 300 µM [1, 15]: 29% | inhibition at 100 µM [1, 16]: 10%

IC50 [2, 11]: 90 ± 15 µM | IC50 [2, 12]: 58 ± 22 µM | IC50 [3, 17]: 415 ± 212 µM | IC50 [3, 18]: 180 ± 92 µM
Structure (SMILES): C[N+]1(C)CCCN(c2ccccn2)CC1 [ASM-016, 1,1-Dimethyl-4-(2-pyridyl)-homopiperazinium Iodide]
inhibition at 300 µM [1, 15]: -6% | inhibition at 100 µM [1, 16]: -22%

Structure (SMILES): C[N+]1(C)CCCN(c2ccccc2)CC1.[I-] [ASM-002, 1,1-dimethyl-4-phenylhomopiperazinium iodide]
inhibition at 100 µM ([1]; NCI-H82, 72 h): -15% | inhibition at 300 µM ([1]; NCI-H82, 72 h): 31% | melting point: 158 to 160 °C | IC50 [2, 11]: 40 ± 15 µM | IC50 [2, 12]: 38 ± 12 µM | IC50 [3, 13]: 323 ± 60 µM | IC50 [3, 14]: 170 ± 23 µM

IC50 [2, 11]: 45 ± 12 µM | IC50 [2, 12]: 51 ± 39 µM | IC50 [3, 7]: > 1000 µM | IC50 [3, 18]: 369 ± 171 µM
Structure (SMILES): CC[N+]1(CC)CCCN(c2ccccc2)CC1.[Br-] [ASM-021, 1,1-Diethyl-4-phenyl-homopiperazinium Bromide]
% Inhibition of Cell Growth at day 3 compared to vehicle-treated cells ([1]; H82, day 3, 3 × 10^−4M): 59% | % Inhibition of Cell Growth at day 3 compared to vehicle-treated cells ([1]; H82, day 3, 10^−4M): 13%

IC50 [1, 19]: 331 µM | IC50 [1, 20]: 252 µM | IC50 [4, 21]: 452 µM | IC50 [4, 22]: 109 µM | IC50 [2, 11]: 81 ± 74 µM | IC50 [2, 12]: 42 ± 34 µM | IC50 [3, 17]: > 700 µM | IC50 [3, 18]: 288 ± 61 µM
Structure (SMILES): CC[N+]1(CC)CCCN(c2ccc(F)cc2)CC1 [ASM-049, 1,1-Diethyl-4-(4-fluorophenyl)-homopiperazinium Tosylate]

Structure (SMILES): Cc1cccc(N2CCC[N+](C)(C)CC2)c1 [ASM-068, 4-Dimethyl-1-(3-methylphenyl)-homopiperazinium Tosylate]
IC50 [1, 9]: 298 µM | IC50 [1, 10]: 179 µM | IC50 ([4]; Calu-3, 72 h, read-out: IC50 Day 3): > 1000 µM | IC50 ([4]; Calu-3, 144 h, read-out: IC50 Day 6): 52 µM | IC50 [2, 11]: 36 ± 17 µM | IC50 [2, 12]: 20 ± 16 µM | IC50 [3, 13]: 580 ± 85 µM | IC50 [3, 14]: 233 ± 31 µM

IC50 [1, 19]: 246 µM | IC50 [1, 20]: 176 µM | IC50 [4, 21]: 276 µM | IC50 [4, 22]: 86 µM | IC50 [2, 11]: 37 µM | IC50 [2, 12]: 15 µM | IC50 [3, 17]: 322 µM | IC50 [3, 18]: 169 µM
Structure (SMILES): CC[N+]1(CC)CCCN(c2ccc(Cl)cc2)CC1 [ASM-048, 1,1-Diethyl-4-(4-chlorophenyl)-homopiperazinium Tosylate]

IC50 [2, 11]: 60 ± 26 µM | IC50 [2, 12]: 28 ± 15 µM | IC50 [3, 17]: 622 ± 211 µM | IC50 [3, 18]: 272 ± 65 µM
Structure (SMILES): CC[N+]1(C)CCCN(c2ccccc2)CC1 (centres unmarked) [ASM-055, 1-Ethyl-1-Methyl-4-(phenyl)-homopiperazinium Tosylate]
inhibition at 300 µM [1, 15]: 66% | inhibition at 100 µM [1, 16]: 36%

Structure (SMILES): C[N+]1(C)CCCN(c2ccc(C(F)(F)F)cc2)CC1 (as salt: iodide) [ASM-071, 4-Dimethyl-1-(4-trifluorophenyl)-homopiperazinium Iodide]
melting point: 224.3 to 225.4 °C

Structure (SMILES): CC[N+]1(CC)CCCN(c2ccc(O)cc2)CC1 (as salt: tosylate) [ASM-073, 1,1-Diethyl-4-(phenyl-4-hydroxy)-homopiperazinium tosylate]
melting point: 144 to 145.5 °C

Structure (SMILES): C[N+]1(C)CCCN(c2ccc(C(F)(F)F)cc2)CC1 [ASM-071, 4-Dimethyl-1-(4-trifluorophenyl)-homopiperazinium Iodide]
IC50 [2, 5]: 25 ± 15 µM | IC50 [2, 6]: 18 ± 9 µM | IC50 ([3]; read-out: IC50 Day 3, H520, day 3 in culture): 523 ± 292 µM | IC50 ([3]; read-out: IC50 Day 6, H520, day 6 in culture): 235 ± 179 µM
